Experimental data as given in US9212182B2, “Bicyclic sulfonamide compounds as sodium channel inhibitors” (AMGEN INC., priority 2013, dated 2015).

Target: Nav 1.7 (Homo sapiens (Human), UniProt Q15858)
Assay: in-vitro Nav 1.7 PX (IC50)
Assay type: cell-based
Details: not given

Sequence of Nav 1.7 (Q15858 whole entry): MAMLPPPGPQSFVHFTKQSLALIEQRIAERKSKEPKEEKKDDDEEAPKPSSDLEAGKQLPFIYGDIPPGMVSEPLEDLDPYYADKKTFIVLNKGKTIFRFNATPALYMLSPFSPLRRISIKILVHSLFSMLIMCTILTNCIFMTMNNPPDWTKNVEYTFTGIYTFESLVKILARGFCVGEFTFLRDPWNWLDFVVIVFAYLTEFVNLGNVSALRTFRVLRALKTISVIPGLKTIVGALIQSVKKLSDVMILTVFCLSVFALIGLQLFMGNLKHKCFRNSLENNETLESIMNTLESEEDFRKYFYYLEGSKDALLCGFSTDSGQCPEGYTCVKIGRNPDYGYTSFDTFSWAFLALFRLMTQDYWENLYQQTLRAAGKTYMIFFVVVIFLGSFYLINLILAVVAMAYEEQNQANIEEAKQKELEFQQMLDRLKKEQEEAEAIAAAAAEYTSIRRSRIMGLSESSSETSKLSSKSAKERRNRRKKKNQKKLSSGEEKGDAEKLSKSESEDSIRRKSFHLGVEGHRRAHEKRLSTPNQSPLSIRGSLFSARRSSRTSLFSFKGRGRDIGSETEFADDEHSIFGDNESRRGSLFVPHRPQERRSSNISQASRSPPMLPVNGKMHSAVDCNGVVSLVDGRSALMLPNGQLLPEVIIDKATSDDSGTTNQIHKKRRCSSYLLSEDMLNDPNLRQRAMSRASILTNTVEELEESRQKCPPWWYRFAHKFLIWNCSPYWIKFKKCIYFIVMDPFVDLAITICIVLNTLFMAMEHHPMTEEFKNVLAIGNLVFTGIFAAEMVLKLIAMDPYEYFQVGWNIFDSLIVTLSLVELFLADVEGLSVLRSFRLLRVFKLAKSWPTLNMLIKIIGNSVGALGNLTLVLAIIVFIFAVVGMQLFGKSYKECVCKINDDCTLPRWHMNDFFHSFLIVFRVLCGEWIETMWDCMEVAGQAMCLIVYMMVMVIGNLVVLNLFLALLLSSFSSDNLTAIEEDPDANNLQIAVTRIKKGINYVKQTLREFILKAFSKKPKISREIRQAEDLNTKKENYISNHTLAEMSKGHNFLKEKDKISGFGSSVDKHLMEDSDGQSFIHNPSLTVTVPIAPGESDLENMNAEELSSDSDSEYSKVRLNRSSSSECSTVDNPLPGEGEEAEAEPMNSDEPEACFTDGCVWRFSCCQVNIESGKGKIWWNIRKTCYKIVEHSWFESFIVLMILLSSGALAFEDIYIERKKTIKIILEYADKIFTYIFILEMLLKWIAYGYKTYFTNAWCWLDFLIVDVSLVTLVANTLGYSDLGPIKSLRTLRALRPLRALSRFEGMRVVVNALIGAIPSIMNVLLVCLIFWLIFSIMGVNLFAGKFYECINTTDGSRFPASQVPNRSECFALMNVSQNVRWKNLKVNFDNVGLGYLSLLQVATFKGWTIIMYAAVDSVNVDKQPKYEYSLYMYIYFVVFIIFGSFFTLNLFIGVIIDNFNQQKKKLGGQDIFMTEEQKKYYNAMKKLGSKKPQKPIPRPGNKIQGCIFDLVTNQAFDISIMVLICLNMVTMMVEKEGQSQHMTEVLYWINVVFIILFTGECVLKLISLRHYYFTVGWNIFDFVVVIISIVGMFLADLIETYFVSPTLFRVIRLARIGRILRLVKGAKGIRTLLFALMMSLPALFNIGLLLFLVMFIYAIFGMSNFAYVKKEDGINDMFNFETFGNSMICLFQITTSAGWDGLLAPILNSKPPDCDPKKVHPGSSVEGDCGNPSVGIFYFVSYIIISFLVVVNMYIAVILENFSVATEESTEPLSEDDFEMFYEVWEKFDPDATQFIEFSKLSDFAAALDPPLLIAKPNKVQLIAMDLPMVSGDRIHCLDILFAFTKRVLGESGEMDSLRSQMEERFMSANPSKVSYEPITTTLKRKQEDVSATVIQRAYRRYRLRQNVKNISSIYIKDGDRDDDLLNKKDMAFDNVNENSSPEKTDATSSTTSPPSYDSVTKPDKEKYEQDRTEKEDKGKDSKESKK

IC50 [nM]	Structure (SMILES)
9	COc1cc(-c2cc(F)cc(Cl)c2)c(C)cc1-n1c(=O)ccc2cc(S(=O)(=O)Nc3ccon3)ccc21 (atropisomer, axis not shown; (P)) [Example 417, (P)-1-(3′-chloro-5′-fluoro-5-methoxy-2-methyl-4-biphenylyl)-N-3-isoxazolyl-2-oxo-1,2-dihydro-6-quinolinesulfonamide]
246	CCCOc1cc(NS(=O)(=O)c2ccc3c(ccc(=O)n3-c3cc(F)c(Br)cc3OC)c2)ncn1 (atropisomer, axis not shown; (P)) [Example 1186, (P)-1-(4-bromo-5-fluoro-2-methoxyphenyl)-2-oxo-N-(6-propoxy-4-pyrimidinyl)-1,2-dihydro-6-quinolinesulfonamide]
96	COc1cc(OC)cc(-c2cc(OC)c(-n3c(=O)ccc4cc(S(=O)(=O)Nc5ccnc(C)n5)ccc43)cc2F)c1 (atropisomer, axis not shown; (P)) [Example 1171, (P)-1-(2-fluoro-3′,5,5′-trimethoxy-4-biphenylyl)-N-(2-methyl-4-pyrimidinyl)-2-oxo-1,2-dihydro-6-quinolinesulfonamide]

The next lines start with the compound.

Structure (SMILES)	IC50 [nM]
COc1cc(-c2cc(OC)c(-n3c(=O)cnc4cc(S(=O)(=O)Nc5ncccn5)ccc43)cc2F)ccc1Cl [Example 1201, 1-(4′-chloro-2-fluoro-3′,5-dimethoxy-4-biphenylyl)-2-oxo-N-2-pyrimidinyl-1,2-dihydro-6-quinoxalinesulfonamide]	110
COc1cc(-c2ccc(C)c(Cl)c2)ccc1-n1c(=O)ccc2cc(S(=O)(=O)Nc3ccon3)ccc21 (atropisomer, axis not shown; (P)) [Example 587, (P)-1-(3′-chloro-3-methoxy-4′-methyl-4-biphenylyl)-N-3-isoxazolyl-2-oxo-1,2-dihydro-6-quinolinesulfonamide]	20
COc1nc(NCC2(C)CCCC2)c(Cl)cc1-n1c(=O)ccc2cc(S(=O)(=O)Nc3ccon3)ccc21 [Example 1236, 1-(5-chloro-2-methoxy-6-(((1-methylcyclopentyl)methyl)amino)-3-pyridinyl)-N-3-isoxazolyl-2-oxo-1,2-dihydro-6-quinolinesulfonamide]	507
COc1nc(OCC(F)(F)C2CCOCC2)c(Cl)cc1-n1c(=O)ccc2cc(S(=O)(=O)Nc3ccon3)ccc21 [Example 1211, 1-(5-chloro-6-(2,2-difluoro-2-(tetrahydro-2H-pyran-4-yl)ethoxy)-2-methoxy-3-pyridinyl)-N-3-isoxazolyl-2-oxo-1,2-dihydro-6-quinolinesulfonamide]	793
COc1cc(-c2cccc(Cl)c2)cc(F)c1-n1c(=O)ccc2cc(S(=O)(=O)Nc3ccon3)ccc21 (atropisomer, axis not shown; (P)) [Example 320, (P)-1-(3′-chloro-3-fluoro-5-methoxy-4-biphenylyl)-N-3-isoxazolyl-2-oxo-1,2-dihydro-6-quinolinesulfonamide]	141
COc1cc(Br)c(F)cc1-n1c(=O)ccc2cc(S(=O)(=O)Nc3cc(OCC4CC4)ncn3)ccc21 (atropisomer, axis not shown; (P)) [Example 1183, (P)-1-(4-bromo-5-fluoro-2-methoxyphenyl)-N-(6-(cyclopropylmethoxy)-4-pyrimidinyl)-2-oxo-1,2-dihydro-6-quinolinesulfonamide]	2610
COc1cc(-c2cc(F)cc(Cl)c2)c(Cl)cc1-n1c(=O)ccc2cc(S(=O)(=O)Nc3ccon3)ccc21 (atropisomer, axis not shown; (M)) [Example 462, (M)-1-(2,3′-dichloro-5′-fluoro-5-methoxy-[1,1′-biphenyl]-4-yl)-N-(isoxazol-3-yl)-2-oxo-1,2-dihydroquinoline-6-sulfonamide]	193

Same assay, conditions: in-vitro Nav 1.7 PX data

IC50 [nM]	Structure (SMILES)
50	COc1cc(-c2ccc(Cl)c(C)c2)ccc1-n1c(=O)ccc2cc(S(=O)(=O)Nc3ccc(F)cn3)ccc21 (atropisomer, axis not shown; (P)) [Example 689, (P)-1-(4′-chloro-3-methoxy-3′-methyl-4-biphenylyl)-N-(5-fluoro-2-pyridinyl)-2-oxo-1,2-dihydro-6-quinolinesulfonamide]
43	COc1ccc(-c2cc(F)cc(Cl)c2)cc1-n1c(=O)ccc2cc(S(=O)(=O)Nc3ncco3)ccc21 [Example 864, 1-(3′-chloro-5′-fluoro-4-methoxy-3-biphenylyl)-N-1,3-oxazol-2-yl-2-oxo-1,2-dihydro-6-quinolinesulfonamide]
20	COc1cc(-c2cc(Cl)ccc2C#N)c(F)cc1-n1c(=O)ccc2cc(S(=O)(=O)Nc3ccon3)ccc21 [Example 758, 1-(5′-chloro-2′-cyano-2-fluoro-5-methoxy-4-biphenylyl)-N-3-isoxazolyl-2-oxo-1,2-dihydro-6-quinolinesulfonamide]
107	COc1cc(-c2ccc(F)c(F)c2)ccc1-n1c(=O)ccc2cc(S(=O)(=O)Nc3cc(C)ncn3)ccc21 [Example 899, 1-(3′,4′-difluoro-3-methoxy-4-biphenylyl)-N-(6-methyl-4-pyrimidinyl)-2-oxo-1,2-dihydro-6-quinolinesulfonamide]
35	COc1cc(-c2cnc(OC)c(Cl)c2)ccc1-n1c(=O)ccc2cc(S(=O)(=O)Nc3ccon3)ccc21 [Example 814, 1-(4-(5-chloro-6-methoxy-3-pyridinyl)-2-methoxyphenyl)-N-3-isoxazolyl-2-oxo-1,2-dihydro-6-quinolinesulfonamide]

Further lines, the compound ahead of its results:

Structure (SMILES)	IC50 [nM]
COc1cc(C#CC2CCCC2)c(F)cc1-n1c(=O)ccc2cc(S(=O)(=O)Nc3ncc(F)cn3)ccc21 [Example 1135, 1-(4-(cyclopentylethynyl)-5-fluoro-2-methoxyphenyl)-N-(5-fluoro-2-pyrimidinyl)-2-oxo-1,2-dihydro-6-quinolinesulfonamide]	114
COc1cc(-c2ccc(F)c(F)c2)ccc1-n1c(=O)ccc2cc(S(=O)(=O)Nc3cccnn3)ccc21 [Example 896, 1-(3′,4′-difluoro-3-methoxy-4-biphenylyl)-2-oxo-N-3-pyridazinyl-1,2-dihydro-6-quinolinesulfonamide]	47
COc1cc(-c2cc(Cl)ccc2C)ccc1-n1c(=O)ccc2cc(S(=O)(=O)Nc3ccon3)ccc21 [Example 1029, 1-(5′-chloro-3-methoxy-2′-methyl-4-biphenylyl)-N-3-isoxazolyl-2-oxo-1,2-dihydro-6-quinolinesulfonamide]	3
COc1cc(-c2cc(Cl)cc(Cl)c2)ccc1-n1c(=O)ccc2cc(S(=O)(=O)Nc3ccon3)ccc21 [Example 1023, 1-(3′,5′-dichloro-3-methoxy-4-biphenylyl)-N-3-isoxazolyl-2-oxo-1,2-dihydro-6-quinolinesulfonamide]	9
COc1ccc(Br)cc1-n1c(=O)ccc2cc(S(=O)(=O)Nc3ccon3)ccc21 [Example 851, 1-(5-bromo-2-methoxyphenyl)-N-3-isoxazolyl-2-oxo-1,2-dihydro-6-quinolinesulfonamide]	371
COc1cc(-c2cccc(C(F)(F)F)c2)ccc1-n1c(=O)ccc2cc(S(=O)(=O)Nc3cncc(C)n3)ccc21 [Example 950, 1-(3-methoxy-3′-(trifluoromethyl)-4-biphenylyl)-N-(6-methyl-2-pyrazinyl)-2-oxo-1,2-dihydro-6-quinolinesulfonamide]	99
COc1cc(-c2ccc(Cl)cc2)ccc1-n1c(=O)ccc2cc(S(=O)(=O)Nc3ncc(F)cn3)ccc21 [Example 764, 1-(4′-chloro-3-methoxy-4-biphenylyl)-N-(5-fluoro-2-pyrimidinyl)-2-oxo-1,2-dihydro-6-quinolinesulfonamide]	40
COc1cc(-c2cccc(C(F)(F)F)c2)ccc1-n1c(=O)ccc2cc(S(=O)(=O)Nc3cnccn3)ccc21 [Example 915, 1-(3-methoxy-3′-(trifluoromethyl)-4-biphenylyl)-2-oxo-N-2-pyrazinyl-1,2-dihydro-6-quinolinesulfonamide]	31
COc1cc(-c2cccc(C(F)(F)F)c2)ccc1-n1c(=O)ccc2cc(S(=O)(=O)Nc3ccc(C)nn3)ccc21 [Example 1138, 1-(3-methoxy-3′-(trifluoromethyl)-4-biphenylyl)-N-(6-methyl-3-pyridazinyl)-2-oxo-1,2-dihydro-6-quinolinesulfonamide]	146
COc1ccc(-c2ccc(Cl)c(C)c2)cc1-n1c(=O)ccc2cc(S(=O)(=O)Nc3ccon3)ccc21 [Example 875, 1-(4′-chloro-4-methoxy-3′-methyl-3-biphenylyl)-N-3-isoxazolyl-2-oxo-1,2-dihydro-6-quinolinesulfonamide]	15

Same assay, conditions: in-vitro Nav 1.7 PX data (PatchXpress)

IC50 [nM]	Structure (SMILES)
38	COc1cc(-c2cccc(F)c2Cl)ccc1-n1c(=O)ccc2cc(S(=O)(=O)Nc3ccon3)ccc21 [Example 1058, 1-(2′-chloro-3′-fluoro-3-methoxy-4-biphenylyl)-N-3-isoxazolyl-2-oxo-1,2-dihydro-6-quinolinesulfonamide]

Same assay, conditions: in-vitro PatchXpress (PX)

IC50 [nM]	Structure (SMILES)
7	COc1cc(-c2ccc(Cl)c(C#N)c2)c(F)cc1-n1c(=O)ccc2cc(S(=O)(=O)Nc3ccon3)ccc21 (atropisomer, axis not shown; (P)) [Example 508, (P)-1-(4′-chloro-3′-cyano-2-fluoro-5-methoxy-4-biphenylyl)-N-3-isoxazolyl-2-oxo-1,2-dihydro-6-quinolinesulfonamide]
8	COc1cc(-c2cc(C)cc(Cl)c2)c(F)cc1-n1c(=O)ccc2cc(S(=O)(=O)Nc3ccon3)ccc21 (atropisomer, axis not shown; (P)) [Example 506, (P)-1-(3′-chloro-2-fluoro-5-methoxy-5′-methyl-4-biphenylyl)-N-3-isoxazolyl-2-oxo-1,2-dihydro-6-quinolinesulfonamide]
2840	COc1cc(-c2ccc(C)nc2)c(F)cc1-n1c(=O)ccc2cc(S(=O)(=O)Nc3ccon3)ccc21 [Example 500, 1-(5-fluoro-2-methoxy-4-(6-methyl-3-pyridinyl)phenyl)-N-3-isoxazolyl-2-oxo-1,2-dihydro-6-quinolinesulfonamide]
158	COc1cc(-c2cncc(Cl)c2)c(F)cc1-n1c(=O)ccc2cc(S(=O)(=O)Nc3ccon3)ccc21 [Example 407, 1-(4-(5-chloro-3-pyridinyl)-5-fluoro-2-methoxyphenyl)-N-3-isoxazolyl-2-oxo-1,2-dihydro-6-quinolinesulfonamide]
